Laboratory results as given in US20230390315A1, “COMPOSITIONS AND METHODS FOR TREATING ISCHEMIC CONDITIONS” (The Regents of the University of California, priority 2020, published 2023).

How the values were obtained:
VEGFR2 = assay: Western blot of VEGFR2 protein mass in human ECs; format: cell-based; details: hRMVEC, HUVEC and hDMVECs; 40 uM ManN
Description: (§1) Cells were allowed to reach 80% confluency in 12-well plates. […] At various time points, plates were taken out of the incubator and kept on ice. Cell monolayers were first washed once with ice-cold PBS before lysis with 250 μl of Pierce RIPA buffer (ThermoFisher Scientific, Rockford, IL) or use 50 mM Tris-HCl (pH 7.6), 150 mM NaCl, 10% Glycerol, 1% NP-40 containing protease/Phosphatase inhibitor cocktail (100×) (Cell signaling, #5872). Lysates were collected and mixed with 4×Bolt LDS Sample Buffer (Novex, Carlsbad, CA) in the presence of Halt protease inhibitors and phosphatase inhibitor cocktail (ThermoFisher scientific, #NP0007). The samples were subjected to SDS-PAGE (Bolt 4-12% Bis-Tris Plus, Invitrogen) using Bolt MES SDS running buffer or NuPAGE 3-8% Tris-Acetate gel using Tris-Acetate SDS running buffer (Novex). HUVECs (passage 6-8) were plated in EBM-2 basal medium (Lonza) with 0.2% FBS. […] Equal amounts of protein lysates were analyzed by SDS-PAGE and blotted with the indicated antibodies. Proteins were transferred using Tris-Glycine buffer with 20% Methanol (Proteonomics grade) (Apex BioResearch Products). Membranes were first incubated with 5% milk in TBST, pH 7.6 (TEKnova, Hollister, CA), followed by blotting with primary and secondary antibodies. […]

α-glucosidase = α-glucosidase activity assay; format: biochemical, Saccharomyces cerevisiae; details: up to 2 mM
Description: a-mannosidase activity was measured using substrate p-nitrophenyl α-mannopyranoside (1 mM). Enzyme from Jack Bean ([…]) (final concentration of 0.077 U) was incubated at 37° C. in a final volume of 50 μl of 50 mM potassium phosphate buffer, pH 7.5. α-glucosidase was assayed with substrate p-nitrophenyl α-glucoside (7 mM). Enzyme from Saccharomyces cerevisiae-type 1 (Sigma, G5003) (final concentration of 0.1 U) was incubated at 37° C. in a final volume of 50 μl of PBS, pH 7.5. β-Glucosidase was assayed with substrate 4-nitrophenyl β-D-glucopyranoside (Roche). Enzyme from almond (Sigma, G0395) (final concentration of 0.002 U) was incubated at 37° C. in a final volume of 50 μl of PBS, pH 7.5 containing 1% SDS. The incubation was stopped by addition of an equal volume of acid-based stop solution (R&D systems, 895032). Enzymatic activity was measured at 405 nm. α-glucosidase from Saccharomyces cerevisiae type I ([…]) with p-nitrophenyl α-D-glucopyranoside (Sigma, N1377) as the substrate.

bFGFR1 or β1 integrin = assay: Western blot of protein molecular mass in non-ECs; format: cell-based; details: 400 μM and 2 mM
Description: as §1

HUVEC = HUVEC proliferation assay; format: cell-based, human
Description: (§2) Proliferation assays with BCECs and BRECs were performed. Log-phase growing BCECs or BRECs (passage <10) were trypsinized, re-suspended and seeded in 96-well plates (no coating) in low-glucose DMEM supplemented with 10% bovine calf serum, 2 mM glutamine, and antibiotics (growth medium), at a density of 1200-1500 cells per well in 200 μl volume. All reagents were added at the indicated final concentrations. After 3-6 days, cells were incubated with AlamarBlue for 4 hrs. Fluorescence was measured at 530 nm excitation wavelength and 590 nm emission wavelength. The experiments were repeated at least three times. To create a hypoxic condition, cells were placed in a hypoxia incubator with a mixture of gas consisting of 1% 02, 5% CO2 and 94% Nz. On each 96-well plate, untreated and VEGF-treated (10/ng/ml) wells were included to monitor plate-to-plate variations. 20% methanol or 0.05% DMSO served as negative controls. 0.05% DMSO served as negative controls when Cas was tested in these cells. Human RMVECs and human adult DMVECs were split into Gelatin-coated 96 wells (2000 cells per well) in low glucose DMEM containing 10% FBS. 1200 cells/well was set up for proliferation assay in low glucose media containing FBS. Data was collected at day 4 or 5. HUVEC (p7-10) were grown on gelatin-coated plate until it reached 70-80% confluency.
On the day of the assay, cells were dissociated with 0.05% trypsin, which was neutralized with 0.5% FBS-containing EBM. Cells were briefly spun and then re-suspended in 0.5% FBS-media. Cells were counted and plated in 96-well, 1000 cells/well. Triplicate wells were used for each treatment. Data were collected at day 3, and then cells were fixed in 4% paraformaldehyde for 15 min before adding crystal violet. Cell-covered areas were quantified after taking pictures by Image J software.

[1] = test system: human retinal microvascular EC (hRMECs); assay: hRMEC proliferation assay; format: cell-based
Description: as §2

## N[C@H](C=O)[C@@H](O)[C@H](O)[C@H](O)CO [ManN, 2-Amino-2-deoxy-D-mannose]
VEGFR2
  change in VEGFR2 protein mass: significant change in VEGFR2 protein mass
α-glucosidase
  effect on α-glucosidase: No effect
bFGFR1 or β1 integrin
  molecular mass change of bFGFR1 or β1 integrin in non-ECs: induce molecular mass change
HUVEC; HUVEC
  additivity with VEGF on proliferation: dose-dependent additivity with VEGF
HUVEC; HUVEC, at 5 mM
  toxicity: minimal toxicity
HUVEC; ManN by itself
  HUVEC growth: stimulated
[1]
  additivity with VEGF on proliferation: dose-dependent additivity with VEGF
[1]; at 5 mM
  toxicity: minimal toxicity
